Legend:
Ramos cells = experiment: Cytotoxicity (cell death) in Ramos cells; type: cell-based
Experimental: (§1) The compounds listed in Table 9 were tested for activity against F1F0-ATPase by measuring ATP synthesis and ATP hydrolysis. In addition, the compounds were assessed for cytotoxicity in Ramos cells Inhibition of ATP synthesis and hydrolysis by the F1F0-ATPase and cytotoxicity in Ramos cells was measured as described in K. M. Johnson et al. Chemistry & Biology 2005, 12, 485-496.

F1F0-ATPase [1] = target: T1, F1F0-ATPase (Bos taurus, UniProt P13621); experiment: Inhibition of ATP synthesis by the F1F0-ATPase; type: biochemical; conditions: IC40: concentration for 40% inhibition
Experimental: as §1

F1F0-ATPase [2] = target: T1, F1F0-ATPase; experiment: Inhibition of ATP hydrolysis by the F1F0-ATPase; type: biochemical; conditions: IC40: concentration for 40% inhibition
Experimental: as §1

Row | Structure (SMILES) | EC50 (Ramos cells; Ramos cells) | ATP Synthesis (IC40 μM) (F1F0-ATPase [1]) | ATP Hydrolysis (IC40 μM) (F1F0-ATPase [2]) | EC50 (Ramos cells; Homo sapiens, Ramos)
1 | O=C(N=C(NCCc1c[nH]cn1)Nc1ccccc1-c1ccccc1)c1ccccc1Cl [Compound I-1, (Z/E)-N-((2-(1H-imidazol-4-yl)ethylamino)(biphenyl-2-ylamino)methylene)-2-chlorobenzamide] | > 30 µM | >20 µM | >30 µM | 
2 | Cc1ccccc1C(=O)N=C(NCCc1c[nH]cn1)Nc1ccccc1-c1ccccc1 [Compound I-3, (E/Z)—N-((2-(1H-imidazol-4-yl)ethylamino)(biphenyl-2-ylamino)methylene)-2-methylbenzamide] | > 30 µM | >20 µM | >30 µM | 
3 | Cc1cccc(C(=O)N=C(NCCc2c[nH]cn2)Nc2ccccc2-c2ccccc2)c1 [Compound I-4, (E/Z)—N-((2-(1H-imidazol-4-yl)ethylamino)(biphenyl-2-ylamino)methylene)-3-methylbenzamide] | > 20 µM | >10 µM | >20 µM | 
4 | Cc1ccc(C(=O)N=C(NCCc2c[nH]cn2)Nc2ccccc2-c2ccccc2)cc1 [Compound I-5, (E/Z)—N-((2-(1H-imidazol-4-yl)ethylamino)(biphenyl-2-ylamino)methylene)-4-methylbenzamide] | > 20 µM | >10 µM | >10 µM | 
5 | O=C(N=C(NCCc1c[nH]cn1)Nc1ccccc1-c1ccccc1)c1ccccc1 [Compound I-7, (Z/E)-N-((2-(1H-imidazol-4-yl)ethylamino)(biphenyl-2-ylamino)methylene)benzamide] | > 30 µM | >20 µM | >30 µM | 
6 | O=C(N=C(NCCc1c[nH]cn1)Nc1ccccc1-c1ccccc1)c1cccc(Cl)c1 [Compound I-8, (Z/E)-N-((2-(1H-imidazol-4-yl)ethylamino)(biphenyl-2-ylamino)methylene)-3-chlorobenzamide] | > 20 µM | >10 µM | >10 µM | 
7 | O=C(/N=C(/NCCc1c[nH]cn1)Nc1cccc2[nH]ccc12)c1cccc(Cl)c1 [Compound V-1, (Z/E)-N-((2-(1H-imidazol-4-yl)ethylamino)(1H-indol-4-ylamino)methylene)-3-chlorobenzamide] |  | >10 µM | >10 µM | > 30 µM
8 | O=C(/N=C(/NCCc1c[nH]cn1)Nc1ccc2[nH]ccc2c1)c1cccc(Cl)c1 [Compound V-2, (Z/E)-N-((2-(1H-imidazol-4-yl)ethylamino)(1H-indol-5-ylamino)methylene)-3-chlorobenzamide] |  | >10 µM | >20 µM | > 20 µM
9 | O=C(/N=C(/NCCc1c[nH]cn1)Nc1ccc2cc[nH]c2c1)c1cccc(Cl)c1 [Compound V-3, (Z/E)-N-((2-(1H-imidazol-4-yl)ethylamino)(1H-indol-6-ylamino)methylene)-3-chlorobenzamide] |  | >10 µM | <10 µM | > 20 µM
10 | O=C(/N=C(/NCCc1c[nH]cn1)Nc1cccc2cc[nH]c12)c1cccc(Cl)c1 [Compound V-4, (Z/E)-N-((2-(1H-imidazol-4-yl)ethylamino)(1H-indol-7-ylamino)methylene)-3-chlorobenzamide] |  | >10 µM | >10 µM | > 30 µM
11 | O=C(N=C(NCCc1c[nH]cn1)Nc1ccc(-c2ccccc2)cc1)c1ccc(Cl)cc1 [II-1, (Z/E)-N-((2-(1H-imidazol-4-yl)ethylamino)(biphenyl-4-ylamino)methylene)-4-chlorobenzamide] | > 30 µM | >10 µM | >10 µM | 
12 | Cc1cccc(C(=O)N=C(NCCc2c[nH]cn2)Nc2ccc(-c3ccccc3)cc2)c1 [II-2, (Z/E)-N-((2-(1H-imidazol-4-yl)ethylamino)(biphenyl-4-ylamino)methylene)-3-methylbenzamide] | > 30 µM | >10 µM | >10 µM | 
13 | Cc1ccc(C(=O)N=C(NCCc2c[nH]cn2)Nc2ccc(-c3ccccc3)cc2)cc1 [II-3, (Z/E)-N-((2-(1H-imidazol-4-yl)ethylamino)(biphenyl-4-ylamino)methylene)-4-methylbenzamide] | < 10 µM | >10 µM | >10 µM | 
14 | O=C(N=C(NCCc1c[nH]cn1)Nc1ccc(-c2ccccc2)cc1)c1cccc(C(F)(F)F)c1 [II-4, (Z/E)-N-((2-(1H-imidazol-4-yl)ethylamino)(biphenyl-4-ylamino)methylene)-3-(trifluoromethyl)benzamide] | < 10 µM | >10 µM | >10 µM | 
15 | O=C(N=C(NCCc1c[nH]cn1)Nc1ccc(-c2ccccc2)cc1)c1ccc(C(F)(F)F)cc1 [II-5, (Z/E)-N-((2-(1H-imidazol-4-yl)ethylamino)(biphenyl-4-ylamino)methylene)-4-(trifluoromethyl)benzamide] | < 10 µM | >10 µM | >10 µM | 
16 | N#Cc1cccc(C(=O)N=C(NCCc2c[nH]cn2)Nc2ccc(-c3ccccc3)cc2)c1 [II-6, (Z/E)-N-((2-(1H-imidazol-4-yl)ethylamino)(biphenyl-4-ylamino)methylene)-3-cyanobenzamide] | > 30 µM | >20 µM | >30 µM | 
17 | N#Cc1ccc(C(=O)N=C(NCCc2c[nH]cn2)Nc2ccc(-c3ccccc3)cc2)cc1 [II-7, (Z/E)-N-((2-(1H-imidazol-4-yl)ethylamino)(biphenyl-4-ylamino)methylene)-4-cyanobenzamide] | > 30 µM | >20 µM | >10 µM | 
18 | O=C(N=C(NCCc1c[nH]cn1)Nc1ccc(-c2ccccc2)cc1)c1cccc(F)c1 [II-8, (Z/E)-N-((2-(1H-imidazol-4-yl)ethylamino)(biphenyl-4-ylamino)methylene)-3-fluorobenzamide] | < 10 µM | >10 µM | >10 µM | 
19 | O=C(N=C(NCCc1c[nH]cn1)Nc1ccc(-c2ccccc2)cc1)c1ccc(F)cc1 [II-9, (Z/E)-N-((2-(1H-imidazol-4-yl)ethylamino)(biphenyl-4-ylamino)methylene)-4-fluorobenzamide] | > 30 µM | >20 µM | >30 µM | 
20 | O=C(N=C(NCCc1c[nH]cn1)Nc1ccc(-c2ccccc2)cc1)c1cccc(Br)c1 [II-10, (Z/E)-N-((2-(1H-imidazol-4-yl)ethylamino)(biphenyl-4-ylamino)methylene)-3-bromobenzamide] | < 10 µM | >10 µM | >10 µM | 
21 | O=C(N=C(NCCc1c[nH]cn1)Nc1ccc(-c2ccccc2)cc1)c1ccc(Br)cc1 [II-11, (Z/E)-N-((2-(1H-imidazol-4-yl)ethylamino)(biphenyl-4-ylamino)methylene)-4-bromobenzamide] | > 30 µM | >10 µM | >20 µM | 
22 | O=C(N=C(NCCc1c[nH]cn1)Nc1ccc(-c2ccccc2)cc1)c1cccc([N+](=O)[O-])c1 [II-12, (Z/E)-N-((2-(1H-imidazol-4-yl)ethylamino)(biphenyl-4-ylamino)methylene)-3-nitrobenzamide] | > 30 µM | >10 µM | >10 µM | 
23 | O=C(N=C(NCCc1c[nH]cn1)Nc1ccc(-c2ccccc2)cc1)c1ccc([N+](=O)[O-])cc1 [II-13, (Z/E)-N-((2-(1H-imidazol-4-yl)ethylamino)(biphenyl-4-ylamino)methylene)-4-nitrobenzamide] | > 30 µM | >20 µM | >30 µM | 
24 | O=C(N=C(NCCc1c[nH]cn1)Nc1ccc(-c2ccccc2)cc1)c1ccc(Cl)c(Cl)c1 [II-16, (Z/E)-N-((2-(1H-imidazol-4-yl)ethylamino)(biphenyl-4-ylamino)methylene)-3,4-dichlorobenzamide] | < 10 µM | <10 µM | <10 µM | 
25 | O=C(N=C(NCCc1c[nH]cn1)Nc1ccccc1Br)c1cccc(Cl)c1 [III-2, (Z/E)-N-((2-(1H-imidazol-4-yl)ethylamino)(2-bromophenylamino)methylene)-3-chlorobenzamide] | > 20 µM | <10 µM | >20 µM | 
26 | O=C(N=C(NCCc1c[nH]cn1)Nc1cccc(Br)c1)c1cccc(Cl)c1 [III-3, (Z/E)-N-((2-(1H-imidazol-4-yl)ethylamino)(3-bromophenylamino)methylene)-3-chlorobenzamide] | > 10 µM | <10 µM | >10 µM | 
27 | O=C(N=C(NCCc1c[nH]cn1)Nc1cccc(-c2ccccc2)c1)c1cccc(Cl)c1 [III-6, (Z/E)-N-((2-(1H-imidazol-4-yl)ethylamino)(biphenyl-3-ylamino)methylene)-3-chlorobenzamide] | < 10 µM | <10 µM | >10 µM | 
28 | O=C(N=C(NCCc1c[nH]cn1)Nc1ccc(-c2ccccc2)cc1)c1cccc(Cl)c1 [III-7, (Z/E)-N-((2-(1H-imidazol-4-yl)ethylamino)(biphenyl-4-ylamino)methylene)-3-chlorobenzamide] | < 10 µM | <10 µM | >10 µM | 
29 | Cc1ccccc1NC(=NC(=O)c1cccc(Cl)c1)NCCc1c[nH]cn1 [III-8, (Z/E)-N-((2-(1H-imidazol-4-yl)ethylamino)(o-toluidino)methylene)-3-chlorobenzamide] | > 30 µM | >10 µM | >30 µM | 

Source: patent US8324258B2, “F1F0-ATPase inhibitors and related methods” (The Regents of the University of Michigan, priority 2007, dated 2012)
